These results are taken from BindingDB's records for doi:10.1021/jm990599h (National Institute of Diabetes and Digestive and Kidney …, 2000).

In this assay the target is Beta-2 adrenergic receptor (Rattus norvegicus) (UniProt P10608). Briefly: Binding of [3H]dihydroalprenolol to beta-2 adrenergic receptor of rat cerebellar membranes.
Sequence of Beta-2 adrenergic receptor (Rattus norvegicus) (P10608 whole entry, looked up): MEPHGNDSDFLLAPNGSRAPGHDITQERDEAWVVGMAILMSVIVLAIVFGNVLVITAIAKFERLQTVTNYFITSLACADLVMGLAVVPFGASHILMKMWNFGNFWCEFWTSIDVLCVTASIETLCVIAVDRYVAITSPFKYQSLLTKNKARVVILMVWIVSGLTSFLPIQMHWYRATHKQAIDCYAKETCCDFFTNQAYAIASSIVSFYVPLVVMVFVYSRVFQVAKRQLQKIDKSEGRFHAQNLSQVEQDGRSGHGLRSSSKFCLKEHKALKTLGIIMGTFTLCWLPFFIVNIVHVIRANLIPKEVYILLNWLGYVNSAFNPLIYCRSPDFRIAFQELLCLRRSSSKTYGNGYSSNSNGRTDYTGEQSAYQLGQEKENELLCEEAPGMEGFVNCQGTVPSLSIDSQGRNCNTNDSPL
Compound `NCCc1ccc(O)c(O)c1` registered an inhibition constant Ki of 50 µM.

For the compound `CNCC(O)c1cc(O)c(O)cc1F` (stereo not drawn) [(+/-)4-Fluoro-5-(1-hydroxy-2-methylamino-ethyl)-benzene-1,2-diol], the affinity, expressed as Ki, was 50 µM. Next, `CNC[C@H](O)c1cc(O)c(O)cc1F` [(R)4-Fluoro-5-(1-hydroxy-2-methylamino-ethyl)-benzene-1,2-diol]: 38 µM.

What is called Ki is a dissociation constant, usually derived from enzyme kinetics or from competition with a known ligand. A higher Ki goes with lower affinity.
